Peptide text beside a SMILES is read from it. * marks the point of attachment. Cbz = O=C(OCc1ccccc1)*; Acryloyl = C=CC(=O)*; OtBu = CC(C)(C)O*
Tests used:
[1] = biological target: T1, Protein-glutamine gamma-glutamyltransferase E (Homo sapiens, UniProt Q08188); assay: Inhibition of transglutaminase 3
T1 sequence (Q08188 whole entry): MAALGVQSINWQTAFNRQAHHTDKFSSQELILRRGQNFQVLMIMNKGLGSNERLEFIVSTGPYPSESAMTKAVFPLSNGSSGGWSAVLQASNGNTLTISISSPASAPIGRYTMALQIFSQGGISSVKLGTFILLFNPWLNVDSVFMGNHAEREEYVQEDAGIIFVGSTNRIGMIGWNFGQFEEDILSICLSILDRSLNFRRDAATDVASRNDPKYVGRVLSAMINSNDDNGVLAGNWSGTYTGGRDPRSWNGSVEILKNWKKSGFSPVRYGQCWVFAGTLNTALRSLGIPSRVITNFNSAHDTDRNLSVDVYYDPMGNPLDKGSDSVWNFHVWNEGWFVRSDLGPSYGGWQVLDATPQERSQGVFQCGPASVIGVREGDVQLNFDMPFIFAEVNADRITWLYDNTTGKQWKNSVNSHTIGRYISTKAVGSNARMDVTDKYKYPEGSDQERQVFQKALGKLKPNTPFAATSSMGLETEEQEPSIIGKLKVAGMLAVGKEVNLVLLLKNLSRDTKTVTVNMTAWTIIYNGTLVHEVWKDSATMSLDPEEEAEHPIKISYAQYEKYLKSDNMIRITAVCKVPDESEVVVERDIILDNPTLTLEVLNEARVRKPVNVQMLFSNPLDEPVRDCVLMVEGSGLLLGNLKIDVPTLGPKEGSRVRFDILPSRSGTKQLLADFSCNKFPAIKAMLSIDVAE

[2] = biological target: T2, Protein-glutamine gamma-glutamyltransferase 6 (Homo sapiens, UniProt O95932); assay: Inhibition of transglutaminase 6
T2 sequence (O95932 whole entry): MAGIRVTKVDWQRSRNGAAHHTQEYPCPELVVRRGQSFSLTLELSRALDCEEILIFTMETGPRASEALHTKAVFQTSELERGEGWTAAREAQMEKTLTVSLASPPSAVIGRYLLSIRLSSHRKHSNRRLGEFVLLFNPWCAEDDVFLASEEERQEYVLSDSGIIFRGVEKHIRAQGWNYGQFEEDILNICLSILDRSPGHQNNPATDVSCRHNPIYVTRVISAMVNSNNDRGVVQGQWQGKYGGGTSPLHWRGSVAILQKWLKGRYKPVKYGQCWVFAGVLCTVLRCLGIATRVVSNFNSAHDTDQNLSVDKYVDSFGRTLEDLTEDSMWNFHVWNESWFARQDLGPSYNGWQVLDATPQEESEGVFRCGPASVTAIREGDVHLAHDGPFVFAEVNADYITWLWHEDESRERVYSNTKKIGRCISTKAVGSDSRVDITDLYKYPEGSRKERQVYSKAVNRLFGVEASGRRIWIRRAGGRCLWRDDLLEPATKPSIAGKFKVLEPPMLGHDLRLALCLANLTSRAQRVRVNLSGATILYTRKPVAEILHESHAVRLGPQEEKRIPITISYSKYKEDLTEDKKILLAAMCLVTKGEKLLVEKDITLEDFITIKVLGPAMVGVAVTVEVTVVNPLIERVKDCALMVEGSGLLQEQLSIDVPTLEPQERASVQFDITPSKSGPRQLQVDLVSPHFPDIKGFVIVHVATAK

[3] = biological target: T3, Coagulation factor XIII A chain (Homo sapiens, UniProt P00488); assay: Inhibition of coagulation factor 13a
T3 sequence (P00488 whole entry): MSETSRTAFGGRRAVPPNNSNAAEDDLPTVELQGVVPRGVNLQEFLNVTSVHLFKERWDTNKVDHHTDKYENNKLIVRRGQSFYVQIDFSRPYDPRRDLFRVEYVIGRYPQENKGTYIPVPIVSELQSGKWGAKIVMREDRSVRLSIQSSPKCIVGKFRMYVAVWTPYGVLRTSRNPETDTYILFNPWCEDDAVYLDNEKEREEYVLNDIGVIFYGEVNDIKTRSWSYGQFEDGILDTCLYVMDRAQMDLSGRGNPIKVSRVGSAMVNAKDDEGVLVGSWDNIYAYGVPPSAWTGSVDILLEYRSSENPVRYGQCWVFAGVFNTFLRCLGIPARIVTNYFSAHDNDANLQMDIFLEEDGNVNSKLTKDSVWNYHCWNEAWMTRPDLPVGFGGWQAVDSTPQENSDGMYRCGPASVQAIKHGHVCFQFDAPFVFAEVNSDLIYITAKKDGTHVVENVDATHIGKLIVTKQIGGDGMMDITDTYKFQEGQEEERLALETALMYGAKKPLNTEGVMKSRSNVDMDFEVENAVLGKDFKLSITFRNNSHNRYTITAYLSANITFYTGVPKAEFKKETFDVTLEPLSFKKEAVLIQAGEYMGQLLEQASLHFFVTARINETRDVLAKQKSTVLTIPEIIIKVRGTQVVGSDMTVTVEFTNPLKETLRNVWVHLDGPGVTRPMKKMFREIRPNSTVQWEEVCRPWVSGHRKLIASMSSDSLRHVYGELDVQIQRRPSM

[4] = biological target: T4, Protein-glutamine gamma-glutamyltransferase (Homo sapiens, UniProt P21980); assay: Irreversible inhibition of transglutaminase 2
T4 sequence (P21980 whole entry): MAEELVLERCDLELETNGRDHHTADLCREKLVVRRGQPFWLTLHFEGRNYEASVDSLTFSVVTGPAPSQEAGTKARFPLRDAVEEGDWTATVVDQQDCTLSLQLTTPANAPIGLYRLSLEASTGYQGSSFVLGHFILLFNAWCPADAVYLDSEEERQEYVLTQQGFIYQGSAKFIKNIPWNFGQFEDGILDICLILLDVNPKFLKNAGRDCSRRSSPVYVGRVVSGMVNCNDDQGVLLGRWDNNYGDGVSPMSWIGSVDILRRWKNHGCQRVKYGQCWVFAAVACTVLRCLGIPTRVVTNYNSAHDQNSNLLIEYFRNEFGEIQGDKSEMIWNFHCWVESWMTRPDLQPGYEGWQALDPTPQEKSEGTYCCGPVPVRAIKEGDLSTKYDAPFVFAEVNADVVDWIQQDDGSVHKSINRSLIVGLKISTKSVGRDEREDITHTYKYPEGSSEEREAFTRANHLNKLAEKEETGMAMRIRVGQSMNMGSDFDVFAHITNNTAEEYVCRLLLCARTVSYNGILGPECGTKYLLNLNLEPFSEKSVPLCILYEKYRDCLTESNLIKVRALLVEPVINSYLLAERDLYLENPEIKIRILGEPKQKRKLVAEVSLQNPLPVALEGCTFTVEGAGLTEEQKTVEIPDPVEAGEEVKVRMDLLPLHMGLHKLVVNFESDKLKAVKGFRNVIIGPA

C=CC(=O)NCCCC[C@H](NC(=O)OCc1ccccc1)C(=O)N1CCN(c2ccccc2Cl)CC1
IC50 [1]: > 80 µM | IC50 [2]: 69 µM | IC50 [3]: 67 µM | IC50 [4]: 0.062 µM

C=CC(=O)NCCCC[C@H](NC(=O)OCc1ccccc1)C(=O)NCC(=O)OC(C)(C)C (Cbz-Lys(Acryloyl)-Gly-OtBu)
IC50 [1]: > 80 µM | IC50 [2]: > 80 µM | IC50 [3]: > 80 µM | IC50 [4]: 3.1 µM

C=CC(=O)NCCCC[C@H](NC(=O)Cc1ccccc1)C(=O)N1CCN(c2cccc(C)n2)CC1
IC50 [1]: > 80 µM | IC50 [2]: > 80 µM | IC50 [3]: 35 µM | IC50 [4]: 0.014 µM

From ChEMBL document CHEMBL2203174, “SAR Development of Lysine-Based Irreversible Inhibitors of Transglutaminase 2 for Huntington's Disease” (ACS Med Chem Lett, 2012)
